Reference: US20050090474A1, “Methods and compositions for enhancing and inhibiting fertilization” (priority 2002, published 2005)
“Also recorded” adds a separate entry of the source.

Key:
Assay type in all cases: cell-based
[1] = system: capacitated human spermatozoa; experiment: Drug effect on acrosome reaction; parameters: Acrosome reaction: unit not given here; details: for Acrosome reaction (AR) stimulated by inducer: inducer alone, stimulation over control; for AR stimulated by A23187 in the presence of inhibitor / stimulated AR observed in the presence of progesterone and hZP-3, effect of inhibitor: Table 1; for stimulated AR observed in the presence of progesterone and hZP-3, effect of inhibitor: progesterone- and hZP-3-stimulated AR
Protocol: (§1) Sperm capacitation—Isolated sperm samples were incubated for 3 hours at 36° C. in HAM's F-10 medium supplemented with 0.3% BSA as in Rotem et al., 1990a, b
Drug effect on acrosome reaction—To test the involvement of MAPK cascade proteins on acrosome reaction the following drugs were added to the incubation medium: Progesterone (Sigma-Aldrich Corp., St Louis, Mo., USA), hZP-3 (human zona pellucida protein 3, obtained from P. Salling, N.C., USA) diluted in MOCK (F-10 medium containing 0.1% DMSO, Biological Industries, Beth Ha'Emek, Israel), A23187 (calcium ionophore, Calbiochem, La Jolla, Calif., USA), PD98059 (Biomol, Plymouth Meeting, Pa., USA), SB203580 (Biomol, Plymouth Meeting, Pa., USA) and GF109203X (PKC inhibitor, Calbiochem, La Jolla, Calif., USA). Acrosome reaction was determined as described elsewhere (Rotem et al., 1992).

human spermatozoa = experiment: Drug effect on sperm motility (progressive flagellar motility)
Protocol: FIG. 8 is a graphic representation of the effect of progesterone and MAPK inhibitors on human spermatozoa motility. Human spermatozoa (5×10^7/ml) were incubated with PD98059 (ERK inhibitor, at 50 μM, FIG. 8, marked with “PD”) and SB203580 (p38 inhibitor, at 50 μM, FIG. 8, marked with “SB”), in the presence or absence of progesterone (at 5 μg/ml, FIG. 8, marked with “P”) for the indicated time. Percent motile spermatozoa was determined in aliquots of 10 μl. Results are expressed as mean ±SEM of three experiments.
Isolation of human sperm samples—Human semen were obtained upon informed consent from healthy donors having normal sperm density, motility and morphology (according to the World Health Organization (WHO) guidelines of 1992) following 3 days of sexual abstinence. Sperm samples were collected into sterile 50 ml tubes and semen was liquefied for 1 hour at 36° C., washed twice with HAM's F-10 medium (Biological Industries, Beth Ha'Emek, Israel) supplemented with 0.3% bovine serum albumin (BSA) and separated from non-sperm cells by a Percoll gradient centrifugation (Sigma-Aldrich Corp., St Louis, Mo., USA) essentially as described elsewhere (Rotem et al., 1990a, b). The resultant sperm sample contained approx. 50×10^6 sperm/ml.
as §1
Drug effect on sperm motility—To test the effect of MAPK inhibitors and progesterone on sperm motility the following drugs were added to the incubation medium: PD98059 (ERK inhibitor, Biomol, Plymouth Meeting, Pa., USA), SB203580 (p38 inhibitor, Biomol, Plymouth Meeting, Pa., USA) and progesterone (Sigma-Aldrich Corp., St Louis, Mo., USA). Progressive flagellar motility was determined as described elsewhere (Rotem et al., 1990a, b).

ERK 1 and ERK 2 = experiment: Determination of phosphorylated ERK by in-gel kinase assay; details: human spermatozoa stimulated by progesterone 5 μg/ml, bands of 44 and 42 kDa, data not shown
Protocol: Determination of phosphorylated ERK by in-gel kinase assay—To further substantiate its role in spermatozoa maturation the phosphorylation state of ERK was determined by in-gel kinase assay as described elsewhere (Naor et al., 1999). […] Mitogen-activated protein (MAP) kinase pathways: regulation and physiological functions. Endocr. Rev. 22: 153-183] are active in human spermatozoa.

ERK = experiment: Western blot with antibody against phosphorylated (active) ERK; details: capacitated human spermatozoa, 0.2 M vanadate, 60 min, FIG. 4a
Protocol: (§2) FIGS. 4a-f are autoradiograms depicting expression and activity of MAPK proteins in human spermatozoa. LβT2 cells were treated for 60 min with 50 ng/ml 12-O-Tetradecanoylphorbol-13-acetate (TPA, FIGS. 4a-f, lane 1) and capacitated human spermatozoa were treated for 60 min with 0.2 M vanadate (FIGS. 4a-f, lane 3) or were remained untreated (FIGS. 4a-f, lane 2). Cell lysates were subsequently prepared and subjected to Western blot analysis with antibodies directed at the active, phosphorylated form of ERK, p38 and JNK (FIGS. 4a, 4c and 4e, respectively), or with antibodies directed at the unphosphorylated form of ERK, p38 and JNK (FIGS. 4b, 4d and 4f, respectively).
(§3) Western blot analysis—Western blot analysis was effected with antibodies directed at ERK, JNK and p38 proteins as well as with antibodies directed at the phosphorylated forms of these MAPK proteins (Sigma Rehovot, Israel). The assay was performed as previously described (Yung et al., 1997).
(§4) Molecular identification of MAPK cascade proteins in human spermatozoa—Capacitated human spermatozoa cell lysate were generated as described and subjected to Western blot analysis using MAPK antibodies specific to either the phosphorylated or the general forms of ERK, p38 and INK proteins. […]

p38 = experiment: Western blot with antibody against phosphorylated (active) p38; details: capacitated human spermatozoa, 0.2 M vanadate, 60 min, FIG. 4c
Protocol: as §2, §3, §4

SMILES: CNc1ccc2oc(C[C@H]3O[C@@]4(CC[C@H]3C)O[C@H]([C@H](C)C(=O)c3ccc[nH]3)[C@H](C)C[C@H]4C)nc2c1C(=O)O [A23187]
- Acrosome reaction ([1]; A23187 10 μM, no inhibitor (Control)): 51
- Acrosome reaction (AR) stimulated by inducer [1]: 140%

SMILES: CN(C)CCCn1cc(C2=C(c3c[nH]c4ccccc34)C(=O)NC2=O)c2ccccc21 [GF109203X]
- AR stimulated by A23187 in the presence of inhibitor [1]: persisted
- Acrosome reaction ([1]; GF109203X 100 nM, no inducer (Control)): 19
- Acrosome reaction ([1]; GF109203X 100 nM, with A23187 10 μM): 48
- Acrosome reaction ([1]; GF109203X 100 nM, with MOCK): 28
- Acrosome reaction ([1]; GF109203X 100 nM, with hZP3 50 ng/ml): 18
- Acrosome reaction ([1]; GF109203X 100 nM, with progesterone 5 μg/ml): 15
- stimulated AR observed in the presence of progesterone and hZP-3, effect of inhibitor [1]: markedly inhibited

SMILES: COc1cccc(-c2cc(=O)c3ccccc3o2)c1N [PD98059]
- progressive flagellar motility decreased to (human spermatozoa; human spermatozoa, 50 μM PD98059, transient, FIG. 8): 50%
- AR stimulated by A23187 in the presence of inhibitor [1]: persisted
- Acrosome reaction ([1]; PD98059 5 μM, no inducer (Control)): 17
- Acrosome reaction ([1]; PD98059 5 μM, with A23187 10 μM): 50
- Acrosome reaction ([1]; PD98059 5 μM, with MOCK): 25
- Acrosome reaction ([1]; PD98059 5 μM, with hZP3 50 ng/ml): 29
- Acrosome reaction ([1]; PD98059 5 μM, with progesterone 5 μg/ml): 18
- stimulated AR observed in the presence of progesterone and hZP-3, effect of inhibitor [1]: markedly inhibited

SMILES: CC(=O)[C@H]1CC[C@H]2[C@@H]3CCC4=CC(=O)CC[C@]4(C)[C@H]3CC[C@]12C [Progesterone, progesterone]
- phosphorylation state of ERK (in-gel kinase assay) (ERK 1 and ERK 2): exhibited two phosphorylated bands
- effect on progressive flagellar motility (human spermatozoa; human spermatozoa, 5 μg/ml progesterone, FIG. 8): no effect
- Acrosome reaction (AR) stimulated by inducer [1]: 50%
- Acrosome reaction ([1]; progesterone 5 μg/ml, no inhibitor (Control)): 31

SMILES: C[S+]([O-])c1ccc(-c2nc(-c3ccncc3)c(-c3ccc(F)cc3)[nH]2)cc1 (centres unmarked) [SB203580]
- SB203580-induced increase in progressive flagellar motility (human spermatozoa; 50 μM SB203580 co-introduced with 5 μg/ml progesterone, FIG. 8 SB+P): completely abolished
- sperm motility (percent motile spermatozoa), FIG. 8 legend (human spermatozoa; SB203580 50 μM in the presence of progesterone 5 μg/ml): normal motility
- sperm motility (percent motile spermatozoa), FIG. 8 legend (human spermatozoa; human spermatozoa 5×10^7/ml, SB203580 50 μM): significant increase
- increase in progressive flagellar motility (human spermatozoa; human spermatozoa, 50 μM SB203580, FIG. 8): over 120%
- AR stimulated by A23187 in the presence of inhibitor [1]: persisted
- non-specific increase in AR stimulated by MOCK, effect of inhibitor ([1]; MOCK-stimulated AR): inhibited
- Acrosome reaction ([1]; SB203580 20 μM, no inducer (Control)): 17
- Acrosome reaction ([1]; SB203580 20 μM, with A23187 10 μM): 49
- Acrosome reaction ([1]; SB203580 20 μM, with MOCK): 15
- Acrosome reaction ([1]; SB203580 20 μM, with hZP3 50 ng/ml): 28
- Acrosome reaction ([1]; SB203580 20 μM, with progesterone 5 μg/ml): 11
- stimulated AR observed in the presence of progesterone and hZP-3, effect of inhibitor [1]: markedly inhibited

SMILES: [O]=[V]([O-])([O-])[O-] [vanadate]
- phosphorylated ERK (Western blot signal) (ERK): could be detected only following treatment; also recorded: increased band intensity
- phosphorylated form of p38 (Western blot signal) (p38): regardless of vanadate treatment
